The structures appear in SMILES notation.

Experiment [1] has as its system reductive glutathione in peritoneal macrophages. Nature of the experiment: Reductive glutathione content of peritoneal macrophages by ACAS, advanced tumor-bearing mice (Example 4). The format is in vivo, CDF1 mice. Conditions: oral 1 mg/0.5 ml/h every day for 10 days from day 21 after COLON 26 implantation; control physiological saline. The procedure: Oxidative and reductive macrophages collected from peritoneal cavities of advanced tumor-bearing cachectic mice (COLON 26) and normal mice were determined. The COLON 26 transplantable tumor well known to induce a cancer cachexia was implanted subcutaneously in the back portion of CDF1 mice at a density of 5×10^5 cells/mouse. On day 21 after the tumor implantation, the cachectic condition was provided. Five milliliters of a physiological saline solution were intraperitoneally injected into the mice which became resistant to a therapeutic treatment. Peritoneal macrophages were collected, and suspended in a phenol red-free RPMI 1640 medium containing 10% fetal calf serum to a density of 3×10^5 cells/ml. One hundred microliters of the suspension were charged in a Lab-Tek Chamber Slide (#136439, supplied by Nunc), and incubated in 5% CO2 at 37° C. for 3 hours. After the nonadherent cells were removed, 200 μl of the above-mentioned medium free from serum were added thereto, and monochlorobimane (MCB) was added thereto in an amount of 10 μM. The reaction was conducted for 30 minutes, and the image analysis was conducted on the basis of the UV absorption using an ACAS device (supplied by Meridien).
The COLON 26 transplantable tumor was implanted subcutaneously in the back portion of CDF1 mice at a density of 5×10^5 cells/mouse. […]

The next experiment deals with PGE2. The experiment is described as follows: PGE2 in macrophage culture supernatant, advanced tumor-bearing mice (Example 4). The class given is in vivo, CDF1 mice. Conditions: oral 1 mg/0.5 ml/h for 10 days, COLON 26 mice; control mice 32 ng/ml. The procedure:
After the completion of the above-mentioned incubation, the culture supernatant was recovered. The amount of IL-6 was measured by the proliferation assay using an IL-6-dependent cell strain, MH60, the amount of PGE2 was measured using an ELISA-kit, and the amount of NO was measured using a Griess-Romijn reagent. These measurements were conducted by a method which those skilled in the art usually employ.
The COLON 26 transplantable tumor was implanted subcutaneously in the back portion of CDF1 mice at a density of 5×10^5 cells/mouse. […] Glutathione ethyl ester was orally administered to the mice every day in a dosage of 1 mg/0.5 ml/h. This oral administration was continued for 10 days. The peritoneal cells were collected from the mice in the same manner as in Example 3. Peritoneal macrophages were collected, and suspended in a phenol red-free RPMI 1640 medium containing 10% fetal calf serum to a density 3×10^5 cells/ml. The suspension was charged into a Lab-Tek Chamber Slide (#136439, supplied by Nunc) in an amount of 100 μl, and the incubation was conducted in 5% CO2 at 37° C. for 3 hours. After the nonadherent cells were removed, 200 μl of above-mentioned medium free from serum were added thereto, and 10 μM of monochlorobimane were then added thereto. […]

Experiment [2] relates to COLON 26 transplantable tumor. Nature of the experiment: Survival of COLON 26 advanced tumor-bearing cachectic mice (Example 4). Conditions: oral 1 mg/0.5 ml/h for 10 days, COLON 26 mice; control mice 42. The format is in vivo, CDF1 mice.
Experiment [3] deals with macrophages within the thoracic cavity of the patient suffering from sarcoidosis. Nature of the experiment: GSH and GSSG content by enzyme recycling method in macrophages of a sarcoidosis patient incubated with NAC (Example 5). The class given is cell-based, human. The note with it: 5 mM NAC, 3 hours. The source says:
The amounts of oxidative and reductive monocytes macrophages contained in monocytes preparation separated and collected in a usual manner from the peripheral blood and the thoracic cavity of the patient suffering from sarcoidosis were examined by biochemically measuring the contents of reductive glutathione (GSH) end oxidative glutathione (GSSG) by the enzyme recycling method. The peripheral blood of the healthy person was used as a control.
The peripheral blood of the healthy person and the peripheral blood of the patient suffering from sarcoidosis were collected with heparin. Or 150 ml of a physiological saline solution was injected into the bronchia of the patient using a bronchofiber, and 75 ml of bronchoalveolar lavaged fluid were recovered. Monocytes obtained by separating and purifying both of them using Ficoll-Hypaque (LYMPHOPREP) were suspended in an RPMI 1640 medium containing 10% fetal calf serum, and washed three times to obtain macrophage/monocyte preparation adherent to a glass petri dish for 30 minutes. Subsequently, a group incubated for 3 hours with the addition of 5 mM N-acetylcysteine (NAC) and a group of a medium component alone were prepared. A rubber policeman was used to recover adherent cells from the petri dish. With respect to 5×10^5 macrophages, the following examination was conducted.
The contents of reductive glutathione and oxidative glutathione were measured by the above-mentioned enzyme recycling method. […]
A 10 mM phosphate buffer (590 μl, pH 7.5) containing 0.5 mM EDTA, 100 μl of glutathione reductase (supplied by Boehlinger Mannhein) adjusted to a concentration of 6 u/ml in the same buffer, 50 μl of 4 mM NADPH (supplied by Sigma Co.) prepared with 5% NaHCO3 and 10 μl of the sample were mixed. […] The change in the absorbance of 412 nm at 37° C. over the course of time was measured using a spectrophotometer. […]

`CCOC(=O)CNC(=O)[C@H](CS)NC(=O)CC[C@H](N)C(=O)O` [GSH-OEt, glutathione monoethyl ester]: the “amount of oxidative macrophage (reductive glutathione content decreased) in comparison with control mice” value in experiment [1] is “relatively decreased”. In the experiment with PGE2, the “amount of PGE2” value was found to be 6.5 ng/mL. The “average number of survival days” value in experiment [2] was 148 days.
As to `CC(=O)N[C@@H](CS)C(=O)O` [NAC, N-acetylcysteine, reference compound], the “ratio of reductive GSH” value in experiment [3] is “exceeded 80%”. In experiment [3] (without NAC 1.45 μM), the “content of reductive GSH” value turned out to be 20.45 µM. Moreover, in experiment [3] (without NAC 15.85 μM), the “content of oxidative GSSG” value came out at 4.32 µM.

Values taken from US7378387B2, “Method of suppressing immune response by reducing intracellular content of glutathione in macrophages and monocytes” (Ajinomoto Co., Inc., priority 1997, dated 2008).
